Experimental data taken from paper PMC7770045 (Biochemical pharmacology, 2020).

Target: serotonin transporter (SERT) (Rattus norvegicus, UniProt P31652)
Sequence (P31652 whole entry): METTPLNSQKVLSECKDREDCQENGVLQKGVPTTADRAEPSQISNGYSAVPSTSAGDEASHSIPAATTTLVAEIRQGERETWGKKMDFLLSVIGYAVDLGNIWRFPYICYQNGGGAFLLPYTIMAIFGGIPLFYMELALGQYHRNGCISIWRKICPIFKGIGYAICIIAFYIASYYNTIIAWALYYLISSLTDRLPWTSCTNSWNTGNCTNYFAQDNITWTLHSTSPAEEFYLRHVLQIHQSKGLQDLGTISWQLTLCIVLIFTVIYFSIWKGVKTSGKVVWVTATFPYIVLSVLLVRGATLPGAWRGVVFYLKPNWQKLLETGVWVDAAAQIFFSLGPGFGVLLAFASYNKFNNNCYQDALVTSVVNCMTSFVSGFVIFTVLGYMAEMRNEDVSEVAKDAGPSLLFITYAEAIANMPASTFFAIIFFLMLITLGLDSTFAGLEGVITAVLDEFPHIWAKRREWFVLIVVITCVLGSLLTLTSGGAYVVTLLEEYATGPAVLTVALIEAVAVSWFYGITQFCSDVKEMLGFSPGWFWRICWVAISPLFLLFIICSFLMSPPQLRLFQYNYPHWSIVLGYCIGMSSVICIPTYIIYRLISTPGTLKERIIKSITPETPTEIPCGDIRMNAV

**Q.** With `NCCc1c[nH]c2ccc(O)cc12` [Serotonin] as the compound, how does the Km read?
**A.** 2210 nM
